Here are results for 10 compounds from patent publication EP0785211A1, “New substituted 19-nor-pregnane derivatives” (LABORATOIRE THERAMEX, priority 1996, dated 1997).

Like-named read-outs stand apart in the source and are kept apart here. Marks after values point to notes of the source that are not given here.

The target in series [1] is T1, human T47-D cell progesterone receptor (Homo sapiens, UniProt P06401).
T1 construct: Human PR are readily available in high amounts from the T47-D cell line in culture; endogenous in cells; host or cells: T47-D human breast cancer cell line
T1 sequence (P06401 1-933): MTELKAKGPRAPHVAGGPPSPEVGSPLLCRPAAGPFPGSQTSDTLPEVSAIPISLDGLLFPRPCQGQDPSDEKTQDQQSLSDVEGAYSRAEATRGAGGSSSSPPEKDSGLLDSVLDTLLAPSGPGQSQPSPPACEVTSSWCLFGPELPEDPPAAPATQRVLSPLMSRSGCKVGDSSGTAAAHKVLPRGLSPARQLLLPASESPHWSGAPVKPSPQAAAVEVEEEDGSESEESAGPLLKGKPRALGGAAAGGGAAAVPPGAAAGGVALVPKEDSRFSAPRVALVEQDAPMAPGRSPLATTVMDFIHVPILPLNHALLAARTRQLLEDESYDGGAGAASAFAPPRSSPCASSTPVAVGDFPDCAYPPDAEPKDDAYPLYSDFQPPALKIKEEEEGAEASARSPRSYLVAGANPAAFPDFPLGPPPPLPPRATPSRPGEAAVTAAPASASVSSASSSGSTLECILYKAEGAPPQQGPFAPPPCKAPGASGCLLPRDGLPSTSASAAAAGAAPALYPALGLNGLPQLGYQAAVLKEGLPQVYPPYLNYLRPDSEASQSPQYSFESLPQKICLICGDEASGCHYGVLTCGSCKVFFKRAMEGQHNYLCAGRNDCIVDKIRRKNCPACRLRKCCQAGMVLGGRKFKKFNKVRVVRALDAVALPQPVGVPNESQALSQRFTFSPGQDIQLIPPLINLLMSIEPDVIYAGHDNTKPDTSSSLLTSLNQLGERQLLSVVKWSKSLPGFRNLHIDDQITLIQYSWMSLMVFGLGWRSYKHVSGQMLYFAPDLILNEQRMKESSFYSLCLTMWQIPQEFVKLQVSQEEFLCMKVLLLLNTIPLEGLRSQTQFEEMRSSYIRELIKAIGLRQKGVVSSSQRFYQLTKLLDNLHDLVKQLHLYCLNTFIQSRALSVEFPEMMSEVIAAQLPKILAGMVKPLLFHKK
As to the kind of experiment: Relative binding affinity to human T47-D cell progesterone receptor (competition against [3H]-ORG 2058). The settings on record: for RBA: relative binding affinity, nomegestrol acetate as reference = 100%.
Protocol: Relative binding affinities (RBA) for the human T47-D cell PR are determined as previously described (J. Botella, et al., J. Steroid Biochem. Molec. Biol., 1994, 50 : 41-47) using [^3H]-ORG 2058 as the labelled specific ligand (G. Fleischmann et al., Biochim. Biophys. Acta, 1978, 540 : 500-517) and nomegestrol acetate as the non-radioactive reference progestin. Competitive incubations were performed against 2 nM of [^3H]-ORG 2058 for 3 hours at 4°C with six different concentrations of non-labelled steroid, chosen between 4 and 256 nM following a 1/2^n dilution scheme. Displacement curves were fitted for each experiment, and the concentration inhibiting 50% of the specific binding of [^3H]-ORG 2058 was calculated for each curve (IC50).

The subject of series [2] is uterus of estrogen-primed immature female rabbits. Nature of the series: Clauberg-McPhail test by oral administration (endometrial transformation, "dentelle"). The class given is in vivo, rabbit. The settings on record: for Relative activity: relative to nomegestrol acetate = 100%; for ED50: total dose giving mean McPhail grade equal to 2, maximal administered dose 0.75 mg. The text has this: The progestative activity of the compounds of formula (I) can be evaluated in two specific experimental models : the affinity for the progesterone receptor (PR) in vitro, and the endometrial tranformation of the rabbit uterus in vivo.
One specific pharmacological test has been standardized in vivo for the detection and quantitation of pseudogestagenic activity since the mid-30's : it is based on the property of the uterus of estrogen-primed immature female rabbits to respond to very slight amounts of progestin by a typical endometrial transformation into a densely packed and interlaced epithelial network called "dentelle". The original test schedule, which includes 6 days of estrogen priming (total subcutaneous dose of 30 µg/rabbit of estradiol benzoate) followed by 5 days of progestative treatment, was designed as early as 1930 by C. Clauberg, Zentr. Gynäkol. 1930, 54 : 2757-2770. The semi-quantitative scale used to grade the intensity of the microscopical appearance of the "dentelle" was set up by M.K. McPhail, J. Physiol (London), 1934, 83, 145-156. This overall Clauberg-McPhail procedure has been extensively used to screen steroids for putative progestative activity in vivo and is still part of the basic hormonal profile of any new progestin such as norgestimate (A. Phillips et al., Contraception, 1987, 36, 181-192) or desogestrel (J. Van der Vies et al.,Arzneim. Forsch./Drug Res. 1983, 33, 231-236).
The progestative potency is inversely related to the dose needed to induce a half-maximal stimulation of the "dentelle", i.e. to record a mean McPhail grade equal to 2. This ED50 is deduced for the dose-response curve and expressed in total dose/rabbit/5 days. All compounds were tested for activity only following oral administration.

Series [3] relates to immature castrated male rats. As to the kind of experiment: Residual androgenic activity: hypertrophy of ventral prostate and seminal vesicles after 10 daily administrations. The series is classed as in vivo, rat. Conditions: for Seminal Vesicle / Ventral Prostate: mean ± s.e.m. of 8 animals; for androgenic potential (activity on the growth of male accessory sex organs): result in words, up to 20 mg/animal/day. The text has this: The residual androgenic potential is an important feature to evaluate for any new progestin, because it is highly predictive of androgenic side-effects in women. One pharmacological model of androgenic activity has been standardized to screen steroids or related compounds in immature castrated male rats, using the hypertrophy of the ventral prostate and seminal vesicles as the endpoint, following 10 daily administrations (R.I. Dorfman, in Methods in Hormone Research, volume 2, LONDON, Academic Press, 1962 : 275-313; A.G. Hilgar et D.J. Hummel, Androgenic and Myogenic Endocrine Bioassay Data, edited by the U.S. Department of Health, Education and Welfare, […].C., 1964).
Medroxyprogesterone acetate is a 6α-methylpregnene derivative which, besides its main progestative activity, is well-known for its weak androgenic properties (M. Tausk et J. de Visser, In International Encyclopedia of Pharmacology and Therapeutics, Section 48 : Progesterone, Progestational Drugs and Antifertility Agents, volume II, OXFORD, Pergamon Press, 1972 : 35-216); it was therefore chosen as a reference compound in the testing for residual androgenic activity of test examples according to the invention.
The compounds of examples 2 and 7 were tested for residual androgenic properties in the immature castrated male rat model by oral administration (PO), in comparison with medroxyprogesterone acetate, in two different experiments (ventral prostate and seminal vesical hypertrophy), as described above; testosterone was used as a standard androgenic agent by subcutaneous injection (SC).

Where [4] appears, read: Table 3 experiment, SC, 0,05 mg/animal/day.
The mark [5] stands for this setting: Table 4 experiment, SC, 0,05 mg/animal/day.

In series [1], `CC(=O)O[C@]1(C(C)=O)C[C@@H](C)[C@H]2[C@@H]3C=C(C)C4=CC(=O)CC[C@@H]4[C@H]3CC[C@@]21C` [Example 1, 17α-acetoxy-6,15β-dimethyl-3,20-dioxo-19-nor-pregna-4,6-diene] came in with an IC50 of 0.038 ± 0.0103 µM and an RBA of 43%. Also, in series [2], the Relative activity is on record as less than 18% and the ED50 is listed as greater than 0.750 mg/rabbit/5 days.
Take `CC(=O)O[C@]1(C(C)=O)C[C@@H](C)[C@H]2[C@@H]3C[C@H](C)C4=CC(=O)CC[C@@H]4[C@H]3CC[C@@]21C` [Example 2, 17α-acetoxy-6α,15β-dimethyl-3,20-dioxo-19-nor-pregna-4-ene]: the “Seminal Vesicle” value in series [3] (Table 3 experiment, PO, 20 mg/animal/day, castrated controls 10.4 ± 0.4) is listed as 12.1 ± 0.7 ns mg. For the same compound, in series [3] (Table 3 experiment, PO, 20 mg/animal/day, castrated controls 14.6 ± 1.4), the “Ventral Prostate” value is recorded as 13.0 ± 1.1 ns mg. Also, in series [3] (PO), the “androgenic potential (activity on the growth of male accessory sex organs)” value is recorded as “totally devoid of any activity on the growth of male accessory sex organs”. In series [1], this compound yielded an IC50 of 0.0288 ± 0.0056 µM and an RBA of 57%. Further, in series [2], the Relative activity stood at 165% and the ED50 turned out to be 0.080 mg/rabbit/5 days.
As to `CC(=O)O[C@]1(C(C)=O)[C@H]2C[C@H]2[C@H]2[C@@H]3C=C(C)C4=CC(=O)CC[C@@H]4[C@H]3CC[C@@]21C` [Example 6, 17α-acetoxy-6-methyl-15β,16β-methylene-3,20-dioxo-19-nor-pregna-4,6-diene], in series [1], the IC50 stood at 0.0211 ± 0.006 µM and the RBA came to 78%. In series [2], the Relative activity is given as less than 18% and the ED50 was greater than 0.750 mg/rabbit/5 days.
For the compound `CC(=O)O[C@]1(C(C)=O)[C@H]2C[C@H]2[C@H]2[C@@H]3C[C@H](C)C4=CC(=O)CC[C@@H]4[C@H]3CC[C@@]21C` [Example 7, 17α-acetoxy-6α-methyl-15β,16β-methylene-3,20-dioxo-19-nor-pregna-4-ene], the “Ventral Prostate” value in series [3] (Table 4 experiment, PO, 20 mg/animal/day, castrated controls 12.0 ± 0.9) was 16.5 ± 0.9 mg. In addition, the “Seminal Vesicle” value in series [3] (Table 4 experiment, PO, 20 mg/animal/day, castrated controls 12.3 ± 0.7) came out at 13.9 ± 0.8 ns mg. Besides, the “androgenic potential (activity on the growth of male accessory sex organs)” value in series [3] (PO) is “very limited androgenic potential”. Further, in series [1], the IC50 is 0.0197 ± 0.003 µM and the RBA amounted to 83%. For the same compound, in series [2], the Relative activity is recorded as 54% and the ED50 is given as 0.245 mg/rabbit/5 days.
In turn, `CCO[C@]1(C(C)=O)[C@H]2C[C@H]2[C@H]2[C@@H]3C[C@H](C)C4=CC(=O)CC[C@@H]4[C@H]3CC[C@@]21C` [Example 8, 17α-ethoxy-15β,16β-methylene-6α-methyl-3,20-dioxo-19-nor-pregna-4-ene] came in with an IC50 in series [1] (against 2 nM [3H]-ORG 2058, 3 hours at 4°C, mean ± s.e.m.) of 0.0211 ± 0.006 µM. In addition, the RBA in series [1] amounted to 78%. In addition, in series [2], the Relative activity amounted to 99% and the ED50 came to 0.133 mg/rabbit/5 days.
`CCO[C@]1(C(C)=O)[C@H]2C[C@H]2[C@H]2[C@@H]3C=C(C)C4=CC(=O)CC[C@@H]4[C@H]3CC[C@@]21C` [Example 9, 17α-ethoxy-15β,16β-methylene-6-methyl-20-oxo-19-nor-pregna-4,6-diene]: in series [1], the IC50 worked out at 0.0323 ± 0.0053 µM and the RBA is 51%.
Regarding `CC(=O)OC1(C(C)=O)C2CC2C2C3C(C)C(C)C4=CC(=O)CCC4C3CCC21C` (stereo not drawn) [Example 10, 17α-acetoxy-6α,7α-dimethyl-15β,16β-methylene-3,20-dioxo-19-nor-pregna-4-ene], in series [2], the Relative activity is listed as 22% and the ED50 is 0.600 mg/rabbit/5 days.
In series [1], `CC(=O)O[C@]1(C(C)=O)CC[C@H]2[C@@H]3[C@H](C)[C@H](C)C4=CC(=O)CC[C@@H]4[C@H]3CC[C@@]21C` [Example 11, 17α-acetoxy-6α,7α-dimethyl-3,20-dioxo-19-nor-pregna-4-ene] gave an IC50 of 0.0255 ± 0.0053 µM and an RBA of 64%. In series [2], the Relative activity was 132% and the ED50 was 0.100 mg/rabbit/5 days.
As for `CC(=O)O[C@]1(C(C)=O)CC[C@H]2[C@@H]3C=C(C)C4=CC(=O)CC[C@@H]4[C@H]3CC[C@@]21C` [Nomegestrol acetate, reference compound], the IC50 in series [1] (against 2 nM [3H]-ORG 2058, 3 hours at 4°C, mean ± s.e.m., read-out: IC50) was 0.0164 ± 0.0013 µM. Besides, the RBA in series [1] was 100%. Further, in series [2], the Relative activity was found to be 100% and the ED50 was 0.132 ± 0.013^(a) (0.108/0.150/0.138) mg/rabbit/5 days.
As to `C[C@]12CC[C@H]3[C@@H](CCC4=CC(=O)CC[C@@]43C)[C@@H]1CC[C@@H]2O` [Testosterone, reference compound], in series [3] (setting [4]), the “Seminal Vesicle” value is 85.9 ± 6.8 mg and the “Ventral Prostate” value was found to be 85.1 ± 5.9 mg. Moreover, in series [3] (setting [5]), the “Seminal Vesicle” value is listed as 90.3 ± 6.3 mg and the “Ventral Prostate” value was 90.4 ± 4.4 mg.

Broadly, the IC50 is the concentration that inhibits the measured activity by half.
